# Literature values in US20220305008A1, “TREATMENT OF CANCER HAVING GNAQ OR GNA11 GENETIC MUTATIONS WITH PROTEIN KINASE C INHIBITORS” (IDEAYA BIOSCIENCES, INC., priority 2019, published 2022).
# Columns and labels:
# [1] = in vivo, po
# [2] = test system: metastatic uveal melanoma (MUM); conditions: patients with MUM (metastatic uveal melanoma)
structure (smiles),measurement,setting,value
CC1(N)CCN(c2cccnc2NC(=O)c2nc(-c3ncccc3C(F)(F)F)cnc2N)CC1 [IDE196],safety and tolerability of dose,[1],safe and tolerable
same,anti-tumor activity,[2],preliminary anti-tumor activity
